US20090259054A1, “Methods and Compositions for the Treatment of Angiogenesis and Macular Degeneration” (The Texas A&M University System, priority 2008, published 2009)
“And” between values parts separate entries of the source, which are not always exact repeats. Equal entries are not always repeated. “Also recorded” adds a separate entry of the source.

Experiments:
[1] = 4 mg/kg GA, 1 treatment every two days; cited from earlier work
[2] = system: HUVEC cells; assay: Wound migration assay, VEGF dependent; format: cell-based, human; details: 10 nM GA, 4 ng/ml VEGF, 24 hours
Procedure: HUVEC cells were allowed to grow to full confluence on six-well plates precoated with 0.1% gelatin. Monolayer cells were wounded by scratching with 1 ml pipette tip and washed three times with 1×PBS. Fresh endothelial cell growth medium (hereinafter, ECGM) was added with or without 4 ng/ml VEGF, which was received from the NIH experimental branch, and supplemented with different concentrations of GA. Images were taken after 24 hours of incubation at 37° C. in a 5% CO2 incubator (hereinafter, 5% CO2) with a Nikon digital camera. For PC3 cell migration, PC3 cells were allowed to grow to full confluence on six-well plates and wounded by scratching with a 1 ml pipette tip and washed three times of 1×PBS. Fresh 1640 medium was added with 4 ng/ml VEGF and different concentrations of GA. After a 24-hour incubation period, images were take with a Leica DM IRB inverted microscope. The migrated cells were quantified by manual counting of high power fields (HPF, 200×) and percent inhibition was expressed using untreated wells as 100% (t-test, p<0.005).

[3] = system: HUVEC cells; assay: Western blotting for cleaved caspase 3 and cleaved PARP (apoptosis); format: cell-based, human; details: 100 nM GA
Procedure: HUVEC cells pretreated with or without 4 nM VEGF for 5 min were treated with or without different concentrations of GA for another 5 minutes. 200 μg total protein of the cells of each sample was subjected to immunoprecipitation using anti-c-Src, anti-FAK and anti-AKT antibodies (Santa Cruz Biotech) and further subjected to Western blotting. The pTyr-antibody (Santa Cruz Biotech) was used for detecting c-Src phosphorylation and the pFAK397 antibody (Cell Signaling) was blotted for c-Src-associated FAK phosphorylation at […]. In addition, AKT phosphorylation was examined using a pSer473-AKT antibody (Cell Signaling). Anti-cleaved caspase 3 antibody (Santa Cruz Biotech) was used for detecting cleaved caspase 3 and polyADP ribose polymerase (PARP) cleavage was detected by an anti-PARP p85 fragment (Promega) in apoptosis assays.
Several previous studies described gambogic acid (FIG. 1A) activated apoptosis in cancer cells, which partly answered the molecular mechanism of GA's anticancer characters. […] Whole cell proteins of GA treated HUVECs were analyzed by Western blotting with anticleaved caspase 3 and PARP antibodies. […] To investigate if the apoptotic activation effect of GA is different between endothelial cells and cancer cells, we measured the apoptotic populations of HUVECs and human prostate cancer cell PC3 cells treated with GA by flow cytometry FACS assays. […]

[4] = system: HUVEC cells; assay: Proliferation assay (CellTiter 96 Aqueous One); format: cell-based; details: Homo sapiens, read-out: Concentration that inhibits HUVEC cell proliferation by 50%
From the text: (§1) HUVEC and PC3 cell proliferation assays with different concentrations of GA were followed according to the CellTiter 96 Aqueous One Solution Cell Proliferation Assay (Promega) and analyzed using a VERSAMAX microplate reader (Molecular Devices).

[5] = system: PC3 cells; assay: Proliferation assay (CellTiter 96 Aqueous One); format: cell-based; details: Homo sapiens, PC-3; PC3 cancer cells; read-out: Concentration required to inhibit PC3 cell proliferation by 50%
From the text: as §1

[6] = system: HUVEC cells; assay: Flow cytometry / FACS apoptosis (Sub G1, propidium iodide); format: cell-based, human; details: 24 hours
Procedure: (§2) About 2×10^6 HUVEC and PC3 cells were treated with different concentrations of GA at 37° C. in a 5% CO2 incubator for 24 hours. The cells were collected and flow cytometry was performed using a FACS Vantage SE DiVa flow cytometer (Becton Dickinson) with propidium iodide staining. The cell population percentages at Sub G1 were defined as apoptotic cells.

[7] = system: PC3 cells; assay: as above; format: cell-based, human; details: 24 hours
Procedure: as §2

[8] = system: C57BL/6 mice; assay: Matrigel plug assay (VEGF dependent angiogenesis in vivo); details: VEGF 4 ng/ml, 7 days
Procedure: Matrigel (0.5 ml/plug) with no VEGF or GA, VEGF (4 ng/ml) but no GA, VEGF (4 ng/ml) and 0.1 μM GA or 0.2 μM GA in liquid form at 4° C., respectively, were injected subcutaneously in the midventral abdominal region of 5-6 week old C57BL/6 mice (five mice for each group). After 7 days, the mice were sacrificed and the plugs were removed. Each concentration had 4-5 Matrigel plugs. The Matrigel plugs were fixed with formalin and embedded with paraffin. The 5 μm sections were stained with H&E staining. The number of erythrocyte-filled blood vessels in the high power microscope field (HPF, 200×) was recorded (plug number=4-5, t-test, p<0.005).

For `CC(C)=CCC[C@]1(C)C=Cc2c(O)c3c(c(CC=C(C)C)c2O1)O[C@]12C(=C[C@@H]4C[C@H]1C(C)(C)O[C@@]2(C/C=C(/C)C(=O)O)C4=O)C3=O` [GA, gambogic acid], the Toxicity of dosage [1] is given as “non-toxic dosage”, the “VEGF dependent migration of HUVEC cells” value [2] is given as “inhibits VEGF dependent migration; also recorded: strongly inhibited VEGF dependent migration” and the “Apoptosis by cleaved caspase 3 and cleaved PARP” value [3] is given as “induces apoptosis; also recorded: strongly induced apoptosis”. The IC50 [4] was 80 nM, the IC50 [5] was > 400 nM and the Apoptotic population ([6]; GA 20 nM) was 11.6 ± 1.1 % of total. For the same molecule, the Apoptotic population ([6]; GA 40 nM) was 14.4 ± 2.3 % of total, the Apoptotic population ([6]; GA 80 nM) was 40 % of total and 40 ± 3.6 % of total and the Apoptotic population ([6]; GA 100 nM) was 57.6 ± 4.7 % of total. For the same molecule, the Apoptotic population ([7]; GA 20 nM) was 1.6 ± 0.3 % of total, the Apoptotic population ([7]; GA 40 nM) was 2.9 ± 0.4 % of total and the Apoptotic population ([7]; GA 80 nM) was 4 % of total and 4.3 ± 0.5 % of total. For the same molecule, the Apoptotic population ([7]; GA 100 nM) was 13.8 ± 3.6 % of total, the “VEGF dependent angiogenesis in Matrigel plugs” value ([8]; 0.1 μM GA) was “inhibited VEGF dependent angiogenesis” and the “VEGF dependent angiogenesis in Matrigel plugs” value ([8]; 0.2 μM GA) was “totally abolished angiogenesis”.
